Key:
H9 cells = assay: Cytotoxicity control by microscopic inspection of cells; details: for Cytotoxicity (Appearance of cells): no virus
Excerpt: (§1) H9 cells were used as host cells for the virus. H9 is a human T cell clone selected for high yield permissive growth of HIV-1, cloned from Hut 78, a human T cell lymphoma cell line with an inducer/helper phenotype derived from the peripheral blood of a patient with Sezary Syndrome.
Cytotoxicity was judged from the microscopic inspection of the cells.

HIV-1 strain IIIB = assay: HIV-1 p24 antigen capture ELISA antiviral assay in H9 cells; assay type: cell-based; details: for % Positive Control (HIV-1 p24): 7 days
Excerpt: as §1
The virus used was HIV-1, Strain IIIB, Catalog No 10-124-000, Lot No. 6M0008-DP.
A titration was run on the virus under the assay conditions without the experimental compounds to determine the viral inoculum for the antiviral assay, that is the lowest multiplicity of infection (MOI) that will infect all positive control cultures. The inoculum was approximately seven times the TCID50/mL of the stock virus.
1 mL cultures were plated with approximately 2.5×10^5 cells per culture. Four replicates were run for each assay condition.
The virus was absorbed onto the host cells in the presence of a reduced volume of culture medium for 2 hours. The inoculum was then washed off the cells with phosphate buffered saline. […] The growth medium used was RPMI 1640 with 10% fetal bovine serum and 50 μg/mL gentamicin.
The assay was run for 7 days and re-fed media with appropriate compound concentrations at 4 days.
The amount of virus proliferation was measured using an HIV-1 p24 antigen capture ELISA. At 7 days, supernatants were harvested and frozen. Supernatants were thawed and diluted as necessary, and the HIV-1 p24 ELISA assay was run. Excess supernatant was refrozen and held for 3 months. The HIV-1 p24 […] of replicate cultures were averaged and presented as a percentage of the positive control.
An inhibition index of zero indicated no efficacy. The closer to 1 the inhibition index was, the greater the efficacy.

[1] = Water solubility (stated); assay type: physicochemical
[2] = system: Bovine Viral Diarrhoea Virus (BVDV), strain NADL; assay: Antiviral fluorometric cytoproliferation assay against BVDV in BT turbinate cells; assay type: cell-based; details: fluvastatin alone 0.3125 μg/mL
Procedure: The Luo Han Guo extract was tested independently at a wide range of concentrations. The extract was tested in two assays, one at 100, 50, 25, 12.5 and 6.25 μg/mL and the other at 3600, 1200, 400, 133.3 and 44.4 μg/mL.
Bos taurus (BT) turbinate cells were used as host cells for the virus. After the cells were plated and allowed to grow overnight, The extract was added and then the virus was inoculated into the cultures. The cultures were allowed to grow for 7 days and then a fluorometric cytoproliferation assay was run. The data from all replicate cultures was averaged and compared to the growth of the negative controls (no virus or extract). The extract was present during absorption and in the media for the duration of the assays. A titration was run on the virus under the assay conditions but without the extract to determine the optimal viral inoculum for the antiviral assay. A dilution of 10^−4 of the stock virus was determined to be the correct inoculum for the antiviral assays. The growth medium used was Dulbecco's Minimum Eagle's Medium and 10% filtered horse serum. […]
The inhibition index was calculated as one minus the ratio of the average fluorescent units of the positive control to the average fluorescent units of infected cultures with a particular concentration of extract (1−(average positive control+average with extract)). […]

Structure (SMILES) | Cytotoxicity (Appearance of cells) (H9 cells; Mogroside V 2 μg/mL) | Cytotoxicity (Appearance of cells) (H9 cells; Mogroside V 6 μg/mL) | Cytotoxicity (Appearance of cells) (H9 cells; Mogroside V 12 μg/mL) | Cytotoxicity (Appearance of cells) (H9 cells; Mogroside V 36 μg/mL) | Cytotoxicity (Appearance of cells) (H9 cells; Mogroside V 100 μg/mL) | Cytotoxicity, as determined by microscopic inspection (H9 cells; entire range of concentrations used (2 to 100 μg/mL)) | Concentration most effective against HIV-1 (HIV-1 strain IIIB) [µg/mL] | Efficacy (HIV-1 strain IIIB; Mogroside V 2 μg/mL) | % Positive Control (HIV-1 p24) (HIV-1 strain IIIB; Mogroside V 2 μg/mL) [%] | Effectiveness at suppressing HIV-1 replication (HIV-1 strain IIIB; Mogroside V 6 μg/mL) [%] | Efficacy (HIV-1 strain IIIB; Mogroside V 6 μg/mL) | % Positive Control (HIV-1 p24) (HIV-1 strain IIIB; Mogroside V 6 μg/mL) [%] | Efficacy (HIV-1 strain IIIB; Mogroside V 12 μg/mL) | % Positive Control (HIV-1 p24) (HIV-1 strain IIIB; Mogroside V 12 μg/mL) [%] | Efficacy (HIV-1 strain IIIB; Mogroside V 36 μg/mL) | % Positive Control (HIV-1 p24) (HIV-1 strain IIIB; Mogroside V 36 μg/mL) [%] | Efficacy (HIV-1 strain IIIB; Mogroside V 100 μg/mL) | % Positive Control (HIV-1 p24) (HIV-1 strain IIIB; Mogroside V 100 μg/mL) [%] | Water solubility [1] | Antiviral activity against BVDV [2]
C[C@H](CC[C@@H](O[C@@H]1O[C@H](CO[C@@H]2O[C@H](CO)[C@@H](O)[C@H](O)[C@H]2O)[C@@H](O)[C@H](O)[C@H]1O[C@@H]1O[C@H](CO)[C@@H](O)[C@H](O)[C@H]1O)C(C)(C)O)[C@H]1CC[C@@]2(C)[C@@H]3CC=C4[C@@H](CC[C@H](O[C@@H]5O[C@H](CO[C@@H]6O[C@H](CO)[C@@H](O)[C@H](O)[C@H]6O)[C@@H](O)[C@H](O)[C@H]5O)C4(C)C)[C@]3(C)[C@H](O)C[C@]12C [Mogroside V, mogroside V] | Normal | Normal | Normal | Normal | Normal | no cytotoxicity | 6 | Partial (partially efficacious if cultures had an inhibition index between 0.20 and 0.89) | 48 | ~80 | Partial (partially efficacious if cultures had an inhibition index between 0.20 and 0.89) | 21 | Partial (partially efficacious if cultures had an inhibition index between 0.20 and 0.89) | 34 | Partial (partially efficacious if cultures had an inhibition index between 0.20 and 0.89) | 59 | None (as having no efficacy if cultures had an inhibition index of less than 0.20) | 88 | – | –
CC(C)n1c(/C=C/[C@H](O)C[C@H](O)CC(=O)O)c(-c2ccc(F)cc2)c2ccccc21 (racemic) [fluvastatin, 7-[3-(4-fluorophenyl)-1-(1-methylethyl)-1H-indol-2-yl]-3,5-dihydroxy-hept-6-enoic acid] | – | – | – | – | – | – | – | – | – | – | – | – | – | – | – | – | – | – | water soluble | no antiviral activity

From patent publication US20150231190A1, “COMPOSITIONS COMPRISING SIRAITIA GROSVENORI EXTRACTS AND METHODS FOR THE TREATMENT OF INFECTION” (Cascade Estates Limited, priority 2007, published 2015)
